Laboratory results taken from ChEMBL document CHEMBL1131663, “Terphenyl cyclooxygenase-2 (COX-2) inhibitors: optimization of the central ring and o-biphenyl analogs” (Bioorg Med Chem Lett, 1999).

Columns and labels:
[1] = target: T1, Prostaglandin G/H synthase 1 (Ovis aries, UniProt P05979); experiment: In vitro inhibitory concentration against ovine COX-1
T1 sequence (P05979 whole entry): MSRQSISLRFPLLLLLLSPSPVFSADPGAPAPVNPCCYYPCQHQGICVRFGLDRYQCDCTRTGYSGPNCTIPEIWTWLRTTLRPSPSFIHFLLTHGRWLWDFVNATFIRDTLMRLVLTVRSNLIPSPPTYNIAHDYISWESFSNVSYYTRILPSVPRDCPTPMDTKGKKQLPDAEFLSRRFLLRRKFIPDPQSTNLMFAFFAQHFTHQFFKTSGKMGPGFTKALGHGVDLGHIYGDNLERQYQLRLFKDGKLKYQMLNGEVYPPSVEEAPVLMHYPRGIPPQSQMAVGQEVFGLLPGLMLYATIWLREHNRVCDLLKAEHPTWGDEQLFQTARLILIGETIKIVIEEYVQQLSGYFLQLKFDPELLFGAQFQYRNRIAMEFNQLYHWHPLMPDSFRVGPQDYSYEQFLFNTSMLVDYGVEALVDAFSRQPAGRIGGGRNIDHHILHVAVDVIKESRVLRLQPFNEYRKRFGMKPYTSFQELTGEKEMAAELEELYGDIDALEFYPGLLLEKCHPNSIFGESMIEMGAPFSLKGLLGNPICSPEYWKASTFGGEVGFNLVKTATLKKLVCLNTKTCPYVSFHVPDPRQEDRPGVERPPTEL

[2] = target: T2, Prostaglandin G/H synthase 2 (Homo sapiens, UniProt P35354); experiment: In vitro inhibitory concentration against recombinant human Prostaglandin G/H synthase 2 obtained from baculovirus
T2 sequence (P35354 whole entry): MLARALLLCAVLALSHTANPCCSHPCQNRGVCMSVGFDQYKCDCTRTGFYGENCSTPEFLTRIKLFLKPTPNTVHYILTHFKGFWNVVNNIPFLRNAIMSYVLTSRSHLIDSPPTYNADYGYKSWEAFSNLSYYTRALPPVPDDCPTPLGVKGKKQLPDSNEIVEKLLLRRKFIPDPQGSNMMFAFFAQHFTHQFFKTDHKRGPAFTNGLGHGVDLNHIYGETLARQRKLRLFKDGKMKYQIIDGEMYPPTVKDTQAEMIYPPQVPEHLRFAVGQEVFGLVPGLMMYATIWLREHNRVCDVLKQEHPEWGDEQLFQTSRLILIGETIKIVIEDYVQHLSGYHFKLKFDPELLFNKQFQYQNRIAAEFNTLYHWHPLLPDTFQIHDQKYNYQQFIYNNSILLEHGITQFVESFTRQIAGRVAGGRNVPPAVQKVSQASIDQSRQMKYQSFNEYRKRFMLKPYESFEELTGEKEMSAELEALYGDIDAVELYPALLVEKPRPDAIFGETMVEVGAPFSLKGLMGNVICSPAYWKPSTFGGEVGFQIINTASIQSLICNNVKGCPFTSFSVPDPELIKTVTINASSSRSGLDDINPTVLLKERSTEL

Structure (SMILES)	IC50 [1] [µM]	IC50 [2] [µM]
CS(=O)(=O)c1ccc(-c2ccccc2-c2ccccc2)cc1	> 1000	–
CS(=O)(=O)c1ccc(-c2ccc([N+](=O)[O-])cc2-c2ccccc2)cc1	> 100	44
CS(=O)(=O)c1ccc(-c2ccccc2-c2cncnc2)cc1	> 300	> 300
CS(=O)(=O)c1ccc(-c2ccccc2-c2ccc3ccccc3n2)cc1	> 1000	57
CS(=O)(=O)c1ccc(-c2ccccc2-c2ccncc2)cc1	> 300	> 300
CS(=O)(=O)c1ccc(-c2ccccc2N2CCCCC2)cc1	43	14
CS(=O)(=O)c1ccc(-c2cc([N+](=O)[O-])ccc2-c2ccccc2)cc1	> 300	38
COc1ccc2cc(-c3ccccc3-c3ccc(S(C)(=O)=O)cc3)ccc2c1	> 1000	30
CS(=O)(=O)c1ccc(-c2cc3ccccc3cc2-c2ccccc2)cc1	> 300	41
CS(=O)(=O)c1ccc(-c2ccccc2C2CCCCC2)cc1	> 1000	31
CS(=O)(=O)c1ccc(-c2cc(N)ccc2-c2ccccc2)cc1	35	194
CN1CC=C(c2ccccc2-c2ccc(S(C)(=O)=O)cc2)CC1	> 300	> 300
CS(=O)(=O)c1ccc(-c2ccccc2Oc2ccccc2)cc1	> 1000	33
CS(=O)(=O)c1ccc(-c2nccnc2-c2ccccc2)cc1	> 300	> 300
CS(=O)(=O)c1ccc(-c2cc(O)ccc2-c2ccccc2)cc1	404	147
COC(=O)c1ccc(-c2ccccc2)c(-c2ccc(S(C)(=O)=O)cc2)c1	> 300	48
CS(=O)(=O)c1ccc(-c2ccccc2C2=CCCCC2)cc1	> 1000	33
CS(=O)(=O)c1ccc(-c2ccccc2Cc2ccccc2)cc1	> 300	> 300
CS(=O)(=O)c1ccc(-c2ccccc2-c2cccnc2)cc1	> 300	87
CS(=O)(=O)c1ccc(-c2ccccc2-c2ccccn2)cc1	> 300	> 300
CS(=O)(=O)c1ccc(-c2ccc(N)cc2-c2ccccc2)cc1	17	254
CS(=O)(=O)c1ccc(-c2ncccc2-c2ccccc2)cc1	> 300	> 300
CS(=O)(=O)c1ccc(-c2cc(C(=O)O)ccc2-c2ccccc2)cc1	232	> 300
CS(=O)(=O)c1ccc(-c2cccnc2-c2ccccc2)cc1	> 1000	–
